# Measurements as given in PMC11464467 (Journal of Advanced Research, 2023).
# Tests used:
# [1] = tested on: MPTP-induced mice PD model; assay: Footprint test in MPTP-induced mice PD model; type: in vivo; settings: selegiline 10 mg/kg orally twice daily 14 days; not statistically significant
# striatal DA = assay: HPLC-ECD striatal DA in MPTP mice; type: in vivo; settings: MPTP-treated mice, selegiline 10 mg/kg
smiles,measurement,setting,value
C#CCN(C)[C@H](C)Cc1ccccc1 [selegiline],"Locomotion impairments in footprint test (time to cross corridor, stride length)",[1],attenuated these locomotion impairments
same,Increase in dopamine levels,striatal DA,15.35%
